Results published in patent US11072619B2, “Pyrazole[1,5-a] pyrimidine derivatives as kinase JAK inhibitors” (CELON PHARMA S.A., priority 2017, dated 2021).

Assays:
[1] = system: TF-1 cells; test: TF-1 cells viability in vitro in the presence of IL-3 (JAK2 activation); format: cell-based; settings: Homo sapiens, 5 ng/mL IL-3, 72 hours, ATPlite, read-out: JAK2 IL3 (EC50, inhibition of viability of TF-1 cells)
Procedure: Assay for TF-1 Cells Viability In Vitro
The effects of the activity of the compounds of the invention were tested in vitro using cells viability assay described below.
Tested compounds were dissolved in 100% DMSO, and obtained stock solutions were serially diluted in OptiMEM medium (Reduced Serum Medium-Thermo Fisher Scientific). […] To a well of the 96-well plate 10 μL of the prepared 10× stock solutions of the compounds. Cells on 96-well plates were incubated with the compounds for 72 hours at 37° C., 5% CO2. Subsequently, viability of the cells was measured using ATPlite kit (Perkin Elmer). For this purpose, 50 μL of lysis buffer (mammalian cell lysis solution) were added to a well of the 96-well plate and the plate was incubated for 10 minutes at 25° C. in a plate thermo-shaker with orbital stirring at 600 rpm. Then to a well of the 96-well plate 50 μL of substrate (substrate solution) were added and incubated for 15 minutes at in dark, in a plate thermo-shaker with orbital stirring at 600 rpm. After incubation time, luminescence intensity in a well was measured using Victor×Light luminometer (Perkin Elmer, Inc.).
On the basis of luminescence intensity measurements in well containing tested compounds at various concentrations and in control wells EC50 values were determined. These values were determined with Graph Pad software v. […] Each compound was tested in at least 6 repetitions (6 wells) on two 96-well plates, using at least 3 wells of each control.

[2] = system: TNFα secreted by lymphocytes T; test: Inhibition of TNFα production by lymphocytes T in vitro; format: cell-based; settings: Lymphocyte, 48 hours, human CD4+ lymphocytes T; for inhibition at 0.01 µM: 10 nM; for inhibition at 0.1 µM: 100 nM; for inhibition at 1 µM: 1000 nM
Procedure: Assay for Inhibition of TNFα and INFγ Production by Lymphocytes T In Vitro
The activity of the compounds of the invention was tested using in vitro assay described below.
Tested compounds were dissolved in 100% DMSO, and obtained stock solutions were serially diluted with OptiMEM medium (Reduced Serum Medium-Thermo Fisher Scientific). Lymhocytes were isolated from leukocyte top coat layer obtained from human peripheral blood. Isolation of peripheral blood mononuclear cells was performed using Ficoll-Paque+Leucosept gradient method, with lymphocytes isolation using CD4+ T Cell Isolation Kit, and activation using T Cell Activation/Expansion Kit (Miltenyi Biotec). Isolated cells in culture medium (90% RPMI 1640+10% FBS) were sived on 12-well plates at 450 μL/well, 300 thousands/well, and 50 μL of prepared 10× stock solutions of tested compounds were added. After 48 hours supernatant was collected for determination of the level of secreted cytokines. Before determination, cells were centrifuged at 1000 g, 10 min. Determination was performed with flow cytometer FACS Calibur using LEGENDplex Human Th cytokine kit. Results are presented in Table 3 as a percentage of inhibition of TNFα i INFγ cytokines secreted by lymphocytes T with reference to control cells.

| Structure (SMILES) | IC50 [1] [nM] | inhibition at 0.01 µM [2] [%] | inhibition at 0.1 µM [2] [%] | inhibition at 1 µM [2] [%] |
| --- | --- | --- | --- | --- |
| COc1cccc(-c2cc3ncc(C(N)=O)c(N[C@@H]4CCN(c5ccc(C#N)nn5)CC4(C)C)n3n2)n1 [Example 11, (R)-7-((1-(6-Cyanopyridazin-3-yl)-3,3-dimethylpiperidin-4-yl)amino)-2-(6-methoxy-pyridin-2-yl)pyrazolo[1,5-a]pyrimidine-6-carboxamide] | 451 | 57.4 | 88.1 | 88.5 |
| Cc1cc(-c2cc3ncc(C(N)=O)c(N[C@@H]4CCN(c5ccc(C#N)nn5)CC4(C)C)n3n2)ccn1 [Example 12, (R)-7-((1-(6-Cyanopyridazin-3-yl)-3,3-dimethylpiperidin-4-yl)amino)-2-(2-methyl-pyridin-4-yl)pyrazolo[1,5-a]pyrimidine-6-carboxamide] | 361 | 76.2 | 75.8 | 95.4 |
| COc1ccc(-c2cc3ncc(C(N)=O)c(N[C@@H]4CCN(c5ccc(C#N)nn5)CC4(C)C)n3n2)cn1 [Example 4, (R)-7-((1-(6-Cyanopyridazin-3-yl)-3,3-dimethylpiperidin-4-yl)amino)-2-(6-methoxy-pyridin-3-yl)pyrazolo[1,5-a]pyrimidine-6-carboxamide] | 707 | 57.1 | 78.7 | 95.3 |
| CC1(C)CN(c2ccc(C#N)nn2)CC[C@H]1Nc1c(C(N)=O)cnc2cc(-c3ccc(N4CCOCC4)nc3)nn12 [Example 7, (R)-7-((1-(6-Cyanopyridazin-3-yl)-3,3-dimethylpiperidin-4-yl)amino)-2-(6-morpholinopyridin-3-yl)pyrazolo[1,5-a]pyrimidine-6-carboxamide] | 283 | 60.6 | 76 | 98.5 |
